Assay results as given in ChEMBL document CHEMBL5325456, “5-(4-Hydroxyphenyl)-3H-1,2-dithiole-3-thione derivatives of brefeldin A: Design, synthesis and cytotoxicity in MDA-MB-231 human breast cancer cells” (Bioorg Med Chem, 2023).
pIC50: −log10 of the molar value.

Assays:
MDA-MB-231 [1] = experiment: Induction of apoptosis in human MDA-MB-231 cells assessed as viable cells at 0.33 uM incubated for 48 hrs by Annexin-V/FITC-PI staining based flow cytometry analysis (reference value: 93.74 %); type: functional; conditions: read-out: Activity
MDA-MB-231 [2] = experiment: Induction of DNA damage in human MDA-MB-231 cells assessed as tail DNA at 0.165 uM incubated for 48 hrs by Comet assay (reference value: 0.007 %); type: functional
MDA-MB-231 [3] = experiment: Induction of cell cycle arrest in human MDA-MB-231 cells assessed as accumulation of cells at G2 phase at 0.165 uM incubated for 48 hrs by flow cytometry analysis (reference value: 16.05 %); type: functional
MDA-MB-231 [4] = experiment: Induction of apoptosis in human MDA-MB-231 cells assessed as viable cells at 0.165 uM incubated for 48 hrs by Annexin-V/FITC-PI staining based flow cytometry analysis (reference value: 93.74 %); type: functional; conditions: read-out: Activity
MDA-MB-231 [5] = experiment: Inhibition of cell migration in human MDA-MB-231 cells assessed as wound healing rate at 82.5 nM measured immediately by scratch wound healing assay (Rvb= 871.53 +/- 3.02 %); type: functional; set-up: scale not given: the % may be the effect or the level left
HeLa = experiment: Antiproliferative activity against human HeLa cells assessed as reduction in cell viability incubated for 48 hrs by CCk-8 assay; type: functional, cell-based
MDA-MB-231 [6] = experiment: Induction of apoptosis in human MDA-MB-231 cells assessed as necrotic cells at 0.33 uM incubated for 48 hrs by Annexin-V/FITC-PI staining based flow cytometry analysis (reference value: 0.99 %); type: functional
MDA-MB-231 [7] = experiment: Inhibition of cell migration in human MDA-MB-231 cells assessed as wound healing rate at 0.165 uM measured for 24 hrs by scratch wound healing assay (Rvb= 230.22 +/- 32.21 %); type: functional; set-up: scale not given: the % may be the effect or the level left
MDA-MB-231 [8] = experiment: Induction of apoptosis in human MDA-MB-231 cells assessed as early apoptotic cells at 0.33 uM incubated for 48 hrs by Annexin-V/FITC-PI staining based flow cytometry analysis (reference value: 2.93 %); type: functional
MDA-MB-231 [9] = experiment: Inhibition of cell invasion in human MDA-MB-231 cells incubated for 24 hrs by crystal violet staining based transwell assay; type: functional; conditions: dose 82.5-330 nM
MDA-MB-231 [10] = experiment: Induction of cell cycle arrest in human MDA-MB-231 cells assessed as accumulation of cells at G1 phase at 0.33 uM incubated for 48 hrs by flow cytometry analysis (reference value: 47.44 %); type: functional
Cell membrane [11] = experiment: Induction of mitochondrial membrane potential loss in human MDA-MB-231 cells assessed as proportion of MMP decreased cells at 0.165 uM and measured for 48 hrs by JC-1 staining based flow cytometry assay (reference value: 4.40%); type: subcellular; set-up: scale not given: the % may be the effect or the level left
MDA-MB-231 [12] = experiment: Inhibition of cell migration in human MDA-MB-231 cells assessed as wound healing rate at 0.33 uM measured immediately by scratch wound healing assay (Rvb= 871.53 +/- 3.02 %); type: functional; set-up: scale not given: the % may be the effect or the level left
MDA-MB-231 [13] = experiment: Induction of apoptosis in human MDA-MB-231 cells assessed as viable cells at 82.5 nM incubated for 48 hrs by Annexin-V/FITC-PI staining based flow cytometry analysis (reference value: 93.74 %); type: functional; conditions: read-out: Activity
MDA-MB-231 [14] = experiment: Induction of apoptosis in human MDA-MB-231 cells assessed as late apoptotic cells at 0.165 uM incubated for 48 hrs by Annexin-V/FITC-PI staining based flow cytometry analysis (reference value: 2.34 %); type: functional
MDA-MB-231 [15] = experiment: Induction of cell cycle arrest in human MDA-MB-231 cells assessed as accumulation of cells at G1 phase at 0.165 uM incubated for 48 hrs by flow cytometry analysis (reference value: 47.44 %); type: functional
MDA-MB-231 [16] = experiment: Inhibition of cell migration in human MDA-MB-231 cells assessed as wound healing rate at 0.33 uM measured for 24 hrs by scratch wound healing assay (Rvb= 230.22 +/- 32.21 %); type: functional; set-up: scale not given: the % may be the effect or the level left
[17] = Antiproliferative activity against human L02 cells assessed as reduction in cell viability incubated for 48 hrs by CCk-8 assay; type: toxicity, cell-based
MDA-MB-231 [18] = experiment: Induction of apoptosis in human MDA-MB-231 cells assessed as necrotic cells at 82.5 nM incubated for 48 hrs by Annexin-V/FITC-PI staining based flow cytometry analysis (reference value: 0.99 %); type: functional
MDA-MB-231 [19] = experiment: Induction of cell cycle arrest in human MDA-MB-231 cells assessed as accumulation of cells at G1 phase at 82.5 nM incubated for 48 hrs by flow cytometry analysis (reference value: 47.44 %); type: functional
Cell membrane [20] = experiment: Induction of mitochondrial membrane potential loss in human MDA-MB-231 cells assessed as proportion of MMP decreased cells at 0.33 uM and measured for 48 hrs by JC-1 staining based flow cytometry assay (reference value: 4.40%); type: subcellular; set-up: scale not given: the % may be the effect or the level left
MDA-MB-231 [21] = experiment: Induction of cell cycle arrest in human MDA-MB-231 cells assessed as accumulation of cells at S phase at 0.165 uM incubated for 48 hrs by flow cytometry analysis (reference value: 36.51%); type: functional
MDA-MB-231 [22] = experiment: Induction of apoptosis in human MDA-MB-231 cells assessed as late apoptotic cells at 82.5 nM incubated for 48 hrs by Annexin-V/FITC-PI staining based flow cytometry analysis (reference value: 2.34 %); type: functional
A549 = experiment: Antiproliferative activity against human A549 cells assessed as reduction in cell viability incubated for 48 hrs by CCk-8 assay; type: functional, cell-based; conditions: A549, 48 h
DU-145 = experiment: Antiproliferative activity against human DU-145 cells assessed as reduction in cell viability incubated for 48 hrs by CCk-8 assay; type: functional, cell-based; conditions: DU-145, 48 h
MDA-MB-231 [23] = experiment: Induction of apoptosis in human MDA-MB-231 cells assessed as early apoptotic cells at 0.165 uM incubated for 48 hrs by Annexin-V/FITC-PI staining based flow cytometry analysis (reference value: 2.93 %); type: functional
MDA-MB-231 [24] = experiment: Induction of cell cycle arrest in human MDA-MB-231 cells assessed as accumulation of cells at S phase at 0.33 uM incubated for 48 hrs by flow cytometry analysis (reference value: 36.51%); type: functional
MDA-MB-231 [25] = experiment: Induction of apoptosis in human MDA-MB-231 cells assessed as necrotic cells at 0.165 uM incubated for 48 hrs by Annexin-V/FITC-PI staining based flow cytometry analysis (reference value: 0.99 %); type: functional
MDA-MB-231 [26] = experiment: Induction of apoptosis in human MDA-MB-231 cells assessed as late apoptotic cells at 0.33 uM incubated for 48 hrs by Annexin-V/FITC-PI staining based flow cytometry analysis (reference value: 2.34 %); type: functional
MDA-MB-231 [27] = experiment: Induction of cell cycle arrest in human MDA-MB-231 cells assessed as accumulation of cells at G2 phase at 0.33 uM incubated for 48 hrs by flow cytometry analysis (reference value: 16.05 %); type: functional
MDA-MB-231 [28] = experiment: Induction of apoptosis in human MDA-MB-231 cells assessed as early apoptotic cells at 82.5 nM incubated for 48 hrs by Annexin-V/FITC-PI staining based flow cytometry analysis (reference value: 2.93 %); type: functional
MDA-MB-231 [29] = experiment: Induction of DNA damage in human MDA-MB-231 cells assessed as tail DNA at 0.33 uM incubated for 48 hrs by Comet assay (reference value: 0.007 %); type: functional

C[C@H]1CCC/C=C/[C@@H]2C[C@H](O)C[C@H]2[C@H](OC(=O)CCCC(=O)OCCOc2ccc(-c3cc(=S)ss3)cc2)/C=C/C(=O)O1
viability at 0.33 µM (MDA-MB-231 [1]): 43.2%
Activity (MDA-MB-231 [2]): 39.11%
Activity (MDA-MB-231 [3]): 9.52%
viability at 0.165 µM (MDA-MB-231 [4]): 71.7%
Activity (MDA-MB-231 [5]): 832.33%
pIC50 (HeLa): 6.07
Activity (MDA-MB-231 [6]): 4.11%
Activity (MDA-MB-231 [7]): 465.92%
Activity (MDA-MB-231 [8]): 21.05%
inhibition (MDA-MB-231 [9]): Dose-Dependent Effect
Activity (MDA-MB-231 [10]): 69.88%
Activity (Cell membrane [11]): 31.7%
Activity (MDA-MB-231 [12]): 844.92%
viability at 0.0825 µM (MDA-MB-231 [13]): 82%
Activity (MDA-MB-231 [14]): 16.31%
Activity (MDA-MB-231 [15]): 60.09%
Activity (MDA-MB-231 [16]): 610.67%
IC50 at 48 h [17]: 1750 nM
Activity (MDA-MB-231 [18]): 2.12%
Activity (MDA-MB-231 [19]): 56.27%
Activity (Cell membrane [20]): 49.8%
Activity (MDA-MB-231 [21]): 30.39%
Activity (MDA-MB-231 [22]): 5.82%
pIC50 (A549): 6.24
pIC50 (DU-145): 6.16
Activity (MDA-MB-231 [23]): 10.14%
Activity (MDA-MB-231 [24]): 22.99%
Activity (MDA-MB-231 [25]): 1.87%
Activity (MDA-MB-231 [26]): 31.61%
Activity (MDA-MB-231 [27]): 7.13%
Activity (MDA-MB-231 [28]): 10.01%
Activity (MDA-MB-231 [29]): 49.49%
